Test results as given in PMC5379127, “Plackett-Burman Design for rGILCC1 Laccase Activity Enhancement in Pichia pastoris: Concentrated Enzyme Kinetic Characterization” (Enzyme Research, 2017).

System: T1, rGILCC1 laccase (GlLCC1)
T1 construct: previously optimized synthetic gene in pGAPZalphaA (pGAPZαA-LacGluc-Stop, also pGAPZαA-GlucPost-Stop, clone 1), secreted by Pichia pastoris X33; concentrated culture supernatant (10 kDa membrane), not purified
Assay: spectrophotometric ABTS oxidation at […] nm, Hanes-Woolf
Assay type: biochemical, Ganoderma lucidum
Details: concentrated culture supernatant, not pure enzyme; 600 mM sodium acetate buffer, pH 4.5, 25°C; read-out: apparent Km

CCn1c(=NN=c2sc3cc(S(=O)(=O)O)ccc3n2CC)sc2cc(S(=O)(=O)O)ccc21 [ABTS, 2,20-azino-bis(3-ethylbenzothiazoline-6-sulphonic acid)]
Km: 53.6 µM
